The record followed here is US7834019B2, “Substituted pyrazolo[3,4-d]pyrimidinone derivatives” (Banyu Pharmaceutical Co., Ltd., priority 2006, dated 2010).

Assay [1] relates to Cdc2 (Cdk1) tyrosine 15-phosphorylation. The assay is described as follows: Cdc2 (Cdk1) tyrosine 15-phosphorylation-inhibitory effect in NCI-H1299 cells + camptothecin (ELISA). In kind it is cell-based. To be noted: Homo sapiens, camptothecin 200 nM for 16 hours, then test compound with nocodazole for 8 hours, read-out: Cdc2-Y15 Phosphorylation-Inhibitory Effect (H1299, + camptothecin) (EC50). From the text: Pharmaceutical Text 2 (Method of Determining Drug Potency in Cells (Cdc2 (Cdk1) Tyrosine 15-Phosphorylation-Inhibitory Effect))
Fetal bovine serum (FBS) was obtained from Morgate; media RPMI1640 and DMEM were from Invitrogen; camptothecin was from Sigma; gemcitabine was from Nippon Eli Lilly; nocodazole and protease inhibitor cocktail were from Sigma; rabbit anti-Cdc2 antibody and mouse anti-Cdc2 antibody were from Santa Cruz Biotechnology; rabbit anti-tyrosine 15-phosphorylated Cdc2 antibody and horseradish peroxidase-labeled anti-mouse IgG antibody were from Cell Signaling Technology; sure blue reserve TMB peroxidase substrate was from Kirkegaard and Perry Laboratories. […]
In the method of using NCI-H1299 cells, the cells were suspended in RPMI1640 containing 10% FBS, and the cell suspension was applied to a 96-well Nunclondelta-processed plastic plate (bought from Nunc), in an amount of 2000 cells/100 μL/well, in which the cells were incubated overnight in 5% CO2-95% air at 37° C. […] Cdc2 was determined through ELISA as follows: A rabbit anti-Cdc2 antibody solution, which had been diluted 200-fold with 50 mM carbonate-bicarbonate buffer (pH 9.6), was applied to a 96-well maxisorpimmuno plate (bought from Nunc), in an amount of 50 μL/well, and statically kept overnight at 4° C. so as to fix the antibody on the plate. […]
For orientation: In an ELISA, binding on a coated surface is turned into a signal by an enzyme label.

Assay [2] deals with Human colon cancer cells WiDr. Nature of the assay: Tumor growth-inhibitory effect, WiDr tumor implanted subcutaneously in nude rats. The format is in vivo, F344/N Jcl-mu nude rats. The conditions noted are these: compound alone 0.75 mg/kg/hr, continuous intravenous injection for 8 hours. Here is the method:
Pharmaceutical Test 4 (Tumor Growth-Inhibitory Effect)
Human colon cancer cells WiDr (gotten from ATCC) were implanted into the subcutaneous area of the back of F344/N Jcl-mu nude rats. Eight days after the implantation, gemcitabine (50 mg/kg, Gemzar injection, Eli-Lilly) was intravenously administered to them; and after 24 hours, a test compound was dissolved in a solvent (5% glucose) and given to them through continuous intravenous injection for 8 hours. The tumor volume (0.5×(major diameter)×(minor diameter)^2) was determined on day 0, 3, 6, 10 and 13. Day 0 means the day on which gemcitabine was administered. The relative tumor volume is a relative value, as calculated on the basis of the tumor volume of 1 on day 0. The tumor growth percentage (% T/C) was obtained according to the following formula:
When the tumor volume change from day 0 in the group subjected to test compound administration is more than 0 (>0): % T/C=[(tumor volume change in the test compounds on day 3, 6, 10, 13)/(tumor volume change in the control on day 3, 6, 10, 13)]×100. When the tumor volume change from day 0 in the group subjected to test compound administration is less than 0 (<0): % T/C=[(tumor volume change in the test compounds on day 3, 6, 10, 13)/(tumor volume […])]×100.

For the compound `C=CCn1c(=O)c2cnc(Nc3ccc(N4CCN(C)CC4)cc3)nc2n1-c1cccc(C(C)(C)O)n1` [Example 53, 2-allyl-1-[6-(1-hydroxy-1-methylethyl)pyridin-2-yl]-6-{[4-(4-methylpiperazin-1-yl)phenyl]amino}-1,2-dihydro-3H-pyrazolo[3,4-d]pyrimidin-3-one], the EC50 (usually the concentration at which the effect is half-maximal) in assay [1] came out at 68 nM. For the same compound, the “% T/C day 3” value in assay [2] (day 3) is 86%. In addition, in assay [2] (day 6), the “% T/C day 6” value is given as 74%. Further, the “% T/C day 10” value in assay [2] (day 10) was 81%. Moreover, the “% T/C day 13” value in assay [2] (day 13) is 89%.
